{
  "source": "patent US9539303B2",
  "about": "“Treatment of Ras-expressing tumors” (Celgene Corporation, priority 2006, dated 2017)",
  "key": {"[1]": {"test_system": "BxPC-3 human pancreatic tumor xenograft", "experiment": "BxPC-3 human pancreatic tumor xenograft tumor growth inhibition study (Example 3)", "format": "in vivo, female nude mice (nu/nu)", "conditions": "for % TGI / Final tumor volume mean ± SEM: Day 29", "from_the_text": "(§1) (Madison, Wis.). […] Tumor measurements were converted to cubic millimeter tumor volume using the formula^(5): […] TGI values for each treatment group are reported at study completion; these calculations are based on the final study day. […] Individual mice lacking palpable tumors were classified as undergoing complete regression (CR). Animals experiencing partial or complete tumor regressions were censored from TGI calculations. However, data from these animals was included in statistical analysis calculations. In addition, weight data from these animals was included in daily and final group calculations. Tumor Necrosis-Degree of tumor necrosis was rated at each tumor measurement using the following arbitrary index: […]"}, "acetylated histone 4": {"test_system": "acetylated histone 4", "experiment": "Tissue biomarker immunoblotting of PANC-1 xenograft tumors: acetylated histone 4", "format": "in vivo", "conditions": "PANC-1 tumors at study completion; FK228 5 mg/kg Q4Dx3, gemcitabine 80 mg/kg Q3Dx4, or both", "experimental": "(§2) Specimen Collection: […] Tumor xenograft tissue and serum specimens were obtained from in vivo studies performed by the Preclinical Research Laboratory at the completion of the experiments. […] Serum was obtained from whole blood and stored frozen at -70° C. Tissue Biomarkers: Tumor levels of acetylated histone-4, histone-4, […] were quantified by immunoblotting as described. Briefly, frozen tissue was pulverized under liquid nitrogen and homogenized in hypotonic lysis buffer. Small aliquots of the extracts were used for analysis of protein concentration by micro-BCA assay with bovine serum albumin as a protein standard. An equal amount of extracts containing about 20-50 μg protein was electrophoresed in SDS polyacrylamide gels. Proteins were transferred to ImmunoBlot PVDF membrane and were probed with appropriate primary and secondary antibodies. The chemiluminescence signal was captured by autoradiography, quantified by densitometry and expressed as a ratio of actin in each sample lane. For each biomarker, means and standard errors were calculated in each treatment group. […] Following quantitative analysis of biomarker levels in each sample, the results were normalized for b-actin and expressed as percentages of untreated controls. […]"}, "[2]": {"test_system": "Panc-1 human pancreas tumors (oncogenic K-ras)", "experiment": "Panc-1 mouse xenograft model, tumor growth (Example 1)", "format": "in vivo, female nude mice", "conditions": "Panc-1 xenograft; FK228 IV Q4Dx3 and/or gemcitabine IP Q3Dx4; vs vehicle control", "experimental": "In this study, female nude mice were implanted subcutaneously (SC) by trocar with Panc-1 tumor fragments harvested from SC growing tumors in nude mice hosts. […] The day of treatment initiation was specified as Day 1. Vehicle control and FK228 were administered intravenously on a […] schedule (Days 1, 5, and 9). Gemcitabine was administered by an intraperitoneal injection on a […] schedule (Days 1, 4, 7, 10). Tumors were measured by Vernier calipers twice weekly."}, "[3]": {"test_system": "transformed (H, K, N-Ras and the rat Her-2/NeuT) NIH-3T3 cells", "experiment": "4-day proliferation assay, transformed NIH-3T3 cell lines", "format": "cell-based, mouse", "conditions": "2 nM romidepsin", "experimental": "(§3) A series of transformed NIH-3T3 cell likes were generated and a proliferation assay was performed in the presence of 2, 3, or 4 nM romidepsin. FIG. 23 illustrates the transformed morphology of the cells. FIG. 24 presents graphs of cell proliferation."}, "[4]": {"test_system": "PANC-1 human pancreatic tumor xenograft", "experiment": "PANC-1 human pancreatic tumor xenograft tumor growth inhibition study (Example 3)", "format": "in vivo, female nude mice (nu/nu)", "conditions": "for % TGI / Final tumor volume mean ± SEM: Day 25", "from_the_text": "as §1"}, "acetylated histone 3": {"test_system": "acetylated histone 3", "experiment": "Tissue biomarker immunoblotting of PANC-1 xenograft tumors: acetylated histone 3", "format": "in vivo", "conditions": "PANC-1 tumors at study completion; FK228 5 mg/kg Q4Dx3, gemcitabine 80 mg/kg Q3Dx4, or both", "experimental": "as §2"}, "B-Raf 600E cells": {"test_system": "B-Raf 600E cells", "experiment": "4-day proliferation assay, B-Raf 600E NIH-3T3 cells", "format": "cell-based, mouse", "conditions": "2, 3, or 4 nM romidepsin", "experimental": "as §3"}, "c-Myc": {"test_system": "c-Myc", "experiment": "Tissue biomarker immunoblotting of PANC-1 xenograft tumors: c-Myc", "format": "in vivo", "conditions": "PANC-1 tumors at study completion; FK228 5 mg/kg Q4Dx3, gemcitabine 80 mg/kg Q3Dx4, or both; actin-normalized vs control", "experimental": "as §2"}, "[5]": {"conditions": "BxPC-3 study, FK228 2.5 mg/kg IV Q4Dx3"}, "[6]": {"conditions": "BxPC-3 study, FK228 2.5 mg/kg IV Q4Dx3, 2.5 mg/kg"}, "[7]": {"conditions": "BxPC-3 study, FK228 5 mg/kg IV Q4Dx3"}, "[8]": {"conditions": "BxPC-3 study, FK228 5 mg/kg IV Q4Dx3, 5 mg/kg"}, "[9]": {"conditions": "PANC-1 study, FK228 2.5 mg/kg IV Q4Dx3"}, "[10]": {"conditions": "PANC-1 study, FK228 2.5 mg/kg IV Q4Dx3, 2.5 mg/kg"}, "[11]": {"conditions": "PANC-1 study, FK228 5 mg/kg IV Q4Dx3"}, "[12]": {"conditions": "PANC-1 study, FK228 5 mg/kg IV Q4Dx3, 5 mg/kg"}},
  "note": "Several values for one entry are separate records, joined by “and”; a condition that tells them apart may be missing. Equal entries are not always repeated.",
  "data": [
    {"smiles": "C/C=C1\\NC(=O)[C@H]2CSSCC/C=C/[C@H](CC(=O)N[C@H](C(C)C)C(=O)N2)OC(=O)[C@H](C(C)C)NC1=O", "note": "[FK228, romidepsin]", "values": [
      {"measurement": "% TGI", "setting": "[1]; [5]", "value": "No TGI"},
      {"measurement": "Final tumor volume mean ± SEM", "setting": "[1]; [6]", "value": "2440±643", "unit": "mm^3"},
      {"measurement": "% TGI", "setting": "[1]; [7]", "value": "No TGI"},
      {"measurement": "Final tumor volume mean ± SEM", "setting": "[1]; [8]", "value": "2620±238", "unit": "mm^3"},
      {"measurement": "Activity according to NCI standards", "setting": "[1]; [5]", "value": "inactive"},
      {"measurement": "Tumor necrosis", "setting": "[1]; [5]", "value": "2/9 animals reported mild tumor necrosis"},
      {"measurement": "#PR/CR", "setting": "[1]; [6]", "value": "0/9 and 0/0"},
      {"measurement": "Activity according to NCI standards", "setting": "[1]; [7]", "value": "inactive"},
      {"measurement": "Tumor necrosis", "setting": "[1]; [7]", "value": "2/9 animals reported mild tumor necrosis"},
      {"measurement": "#PR/CR", "setting": "[1]; [8]", "value": "0/9 and 0/0"},
      {"measurement": "calculated TGI values", "setting": "[1]; BxPC-3 study, at the evaluated doses and schedules", "value": "No tumor growth inhibition"},
      {"measurement": "antitumor activity (overall conclusion)", "setting": "[1]; wildtype ras BxPC-3, all evaluated doses", "value": "inactive"},
      {"measurement": "levels of acetylated histone 4 vs control", "setting": "acetylated histone 4", "value": "over 2 fold"},
      {"measurement": "tumor growth inhibition", "setting": "[2]", "value": 26, "unit": "%"},
      {"measurement": "inhibition of proliferation, transformed vs untransformed cells", "setting": "[3]", "value": "selectively inhibited"},
      {"measurement": "% TGI", "setting": "[4]; [9]", "value": 26, "unit": "%"},
      {"measurement": "Final tumor volume mean ± SEM", "setting": "[4]; [10]", "value": "1688±290", "unit": "MM^3"},
      {"measurement": "% TGI", "setting": "[4]; [11]", "value": 26, "unit": "%"},
      {"measurement": "Final tumor volume mean ± SEM", "setting": "[4]; [12]", "value": "1690±290 MM^3 and 1690 ± 331 MM^3"},
      {"measurement": "Activity according to NCI standards", "setting": "[4]; [9]", "value": "inactive"},
      {"measurement": "Tumor necrosis", "setting": "[4]; [9]", "value": "1/9 animals reported slight tumor necrosis, 1/9 reported mild tumor necrosis, 2/9 reported moderate necrosis, and 1/9 reported severe necrosis"},
      {"measurement": "#PR/CR", "setting": "[4]; [10]", "value": "0/9 and 0/0"},
      {"measurement": "Activity according to NCI standards", "setting": "[4]; [11]", "value": "inactive"},
      {"measurement": "Tumor necrosis", "setting": "[4]; [11]", "value": "2/9 animals reported slight tumor necrosis, and 1/9 reported moderate necrosis"},
      {"measurement": "#PR/CR", "setting": "[4]; [12]", "value": "0/9 and 0/0"},
      {"measurement": "calculated TGI values", "setting": "[4]; PANC-1 study, at the evaluated doses and schedules", "value": "less than 58%"},
      {"measurement": "antitumor activity (overall conclusion)", "setting": "[4]; ras-transformed PANC-1 model, all evaluated doses", "value": "some activity"},
      {"measurement": "acetylation of histone 3", "setting": "acetylated histone 3", "value": "not affected"},
      {"measurement": "potency on proliferation", "setting": "B-Raf 600E cells", "value": "not potent"},
      {"measurement": "extent of inhibition of c-Myc expression", "setting": "c-Myc", "value": 50, "unit": "%"}
    ]}
  ]
}
